Assay results: the NIST ThermoML archive (doi:10.1021/je400783h)

Conditions: for surface tension liquid-gas: Drop volume; for viscosity / speed of sound / mass density / vapor or sublimation pressure: Liquid; for viscosity: Capillary tube (Ostwald / Ubbelohde) method; for speed of sound: Pulse-echo method; for vapor or sublimation pressure: Ebulliometric method (Recirculating still)

OCC1CCCO1 (stereo not given) [2-tetrahydrofurylmethanol]
Conditions	surface tension liquid-gas [mN/m]	vapor or sublimation pressure [kPa]
278.15 K	39.54	–
280.65 K	39.29	–
283.15 K	39.03	–
285.65 K	38.78	–
288.15 K	38.53	–
290.65 K	38.27	–
293.15 K	38.02	–
295.65 K	37.77	–
298.15 K	37.51	–
300.65 K	37.26	–
303.15 K	37.01	0.09
305.65 K	36.75	–
308.15 K	36.5	0.15
310.65 K	36.25	–
313.15 K	35.99	–

Conditions	mass density [kg/m3]	speed of sound [m/s]	viscosity [mPa·s]
278.15 K, 101.33 kPa	–	1556.4	10.39
280.65 K, 101.33 kPa	–	1547.6	9.487
283.15 K, 100 kPa	1062.84	–	–
283.15 K, 101.33 kPa	–	1538.6	8.684
283.15 K, 2500 kPa	1064.37	–	–
283.15 K, 5000 kPa	1065.68	–	–
283.15 K, 7500 kPa	1066.97	–	–
283.15 K, 10000 kPa	1068.24	–	–
283.15 K, 20000 kPa	1073.16	–	–
283.15 K, 30000 kPa	1077.84	–	–
283.15 K, 40000 kPa	1082.28	–	–
283.15 K, 50000 kPa	1086.55	–	–
283.15 K, 60000 kPa	1090.57	–	–
285.65 K, 101.33 kPa	–	1529.7	7.971
288.15 K, 100 kPa	1058.59	–	–
288.15 K, 101.33 kPa	–	1520.8	7.335
288.15 K, 2500 kPa	1060.15	–	–
288.15 K, 5000 kPa	1061.47	–	–
288.15 K, 7500 kPa	1062.8	–	–
288.15 K, 10000 kPa	1064.09	–	–
288.15 K, 20000 kPa	1069.11	–	–
288.15 K, 30000 kPa	1073.88	–	–
288.15 K, 40000 kPa	1078.41	–	–
288.15 K, 50000 kPa	1082.72	–	–
288.15 K, 60000 kPa	1086.83	–	–
290.65 K, 101.33 kPa	–	1511.8	6.765
293.15 K, 100 kPa	1054.34	–	–
293.15 K, 101.33 kPa	–	1503	6.254
293.15 K, 2500 kPa	1055.94	–	–
293.15 K, 5000 kPa	1057.3	–	–
293.15 K, 7500 kPa	1058.64	–	–
293.15 K, 10000 kPa	1060	–	–
293.15 K, 20000 kPa	1065.1	–	–
293.15 K, 30000 kPa	1069.97	–	–
293.15 K, 40000 kPa	1074.62	–	–
293.15 K, 50000 kPa	1078.97	–	–
293.15 K, 60000 kPa	1083.18	–	–
295.65 K, 101.33 kPa	–	1494.2	5.795
298.15 K, 100 kPa	1050.06	–	–
298.15 K, 101.33 kPa	–	1485.3	5.381
298.15 K, 2500 kPa	1051.72	–	–
298.15 K, 5000 kPa	1053.11	–	–
298.15 K, 7500 kPa	1054.48	–	–
298.15 K, 10000 kPa	1055.84	–	–
298.15 K, 20000 kPa	1061.08	–	–
298.15 K, 30000 kPa	1066.04	–	–
298.15 K, 40000 kPa	1070.75	–	–
298.15 K, 50000 kPa	1075.22	–	–
298.15 K, 60000 kPa	1079.49	–	–
300.65 K, 101.33 kPa	–	1476.5	5.006
303.15 K, 100 kPa	1045.78	–	–
303.15 K, 101.33 kPa	–	1467.8	4.667
303.15 K, 2500 kPa	1047.47	–	–
303.15 K, 5000 kPa	1048.9	–	–
303.15 K, 7500 kPa	1050.31	–	–
303.15 K, 10000 kPa	1051.69	–	–
303.15 K, 20000 kPa	1057.06	–	–
303.15 K, 30000 kPa	1062.11	–	–
303.15 K, 40000 kPa	1066.94	–	–
303.15 K, 50000 kPa	1071.49	–	–
303.15 K, 60000 kPa	1075.79	–	–
305.65 K, 101.33 kPa	–	1459	4.359
308.15 K, 100 kPa	1041.48	–	–
308.15 K, 101.33 kPa	–	1450.3	4.078
308.15 K, 2500 kPa	1043.19	–	–
308.15 K, 5000 kPa	1044.66	–	–
308.15 K, 7500 kPa	1046.09	–	–
308.15 K, 10000 kPa	1047.48	–	–
308.15 K, 20000 kPa	1052.96	–	–
308.15 K, 30000 kPa	1058.12	–	–
308.15 K, 40000 kPa	1063.05	–	–
308.15 K, 50000 kPa	1067.61	–	–
308.15 K, 60000 kPa	1072.09	–	–
310.65 K, 101.33 kPa	–	1441.6	3.822
313.15 K, 100 kPa	1037.17	–	–
313.15 K, 101.33 kPa	–	1432.8	3.588
313.15 K, 2500 kPa	1038.92	–	–
313.15 K, 5000 kPa	1040.41	–	–

101.33 kPa, Vibrating tube method
Conditions	mass density [kg/m3]
278.15 K	1067.07
280.65 K	1064.96
283.15 K	1062.84
285.65 K	1060.72
288.15 K	1058.59
290.65 K	1056.47
293.15 K	1054.34
295.65 K	1052.2
298.15 K	1050.06
300.65 K	1047.92
303.15 K	1045.78
305.65 K	1043.63
308.15 K	1041.48
310.65 K	1039.33
313.15 K	1037.17
